For experiment [1], the system named is glucose dehydrogenase whose coenzyme is a flavin adenine dinucleotide of Aspergillus oryzae. Conditions: cited from earlier work.
Experiment [2] concerns coenzyme-binding glucose dehydrogenase. Description: Inhibitor test, additives added to Enzymatic activity measurement method 1. The class given is biochemical, Aspergillus terreus.
The test system is the same in experiment [3]. The experiment in a line: Substrate specificity and Km value, Enzymatic activity measurement method 1. Particulars: for Activity of the enzyme on the substrate (in words): summary of Tables 1 and 2. Type of experiment: biochemical, Aspergillus terreus. As for the experimental part: Employing each of D-glucose and other substrates (each at 333 mM as a final concentration, except for D-cellobiose at 193 mM, D-trehalose and D-raffinose at 121 mM), the enzymatic activity of this enzyme was measured by the Enzymatic activity measurement method 1. The activity on each substrate is represented as a relative value to the activity of this enzyme on D-glucose being regarded as 100%, and shown in Table 1.
Similarly, the relative reactivities (enzymatic activity) on D-glucose and maltose each at two final concentrations, i.e. 550 mM and 100 mM, were measured. The results are represented as relative values based on the value on D-glucose.

For experiment [4], the target named is glucose dehydrogenase whose coenzyme is the pyrroloquinolinequinone derived from Gluconobacter suboxydans (Gluconobacter oxydans, UniProt P27175). Conditions: relative to glucose = 100%; cited from earlier work.
glucose dehydrogenase whose coenzyme is the pyrroloquinolinequinone derived from Gluconobacter suboxydans, sequence (P27175 34-808): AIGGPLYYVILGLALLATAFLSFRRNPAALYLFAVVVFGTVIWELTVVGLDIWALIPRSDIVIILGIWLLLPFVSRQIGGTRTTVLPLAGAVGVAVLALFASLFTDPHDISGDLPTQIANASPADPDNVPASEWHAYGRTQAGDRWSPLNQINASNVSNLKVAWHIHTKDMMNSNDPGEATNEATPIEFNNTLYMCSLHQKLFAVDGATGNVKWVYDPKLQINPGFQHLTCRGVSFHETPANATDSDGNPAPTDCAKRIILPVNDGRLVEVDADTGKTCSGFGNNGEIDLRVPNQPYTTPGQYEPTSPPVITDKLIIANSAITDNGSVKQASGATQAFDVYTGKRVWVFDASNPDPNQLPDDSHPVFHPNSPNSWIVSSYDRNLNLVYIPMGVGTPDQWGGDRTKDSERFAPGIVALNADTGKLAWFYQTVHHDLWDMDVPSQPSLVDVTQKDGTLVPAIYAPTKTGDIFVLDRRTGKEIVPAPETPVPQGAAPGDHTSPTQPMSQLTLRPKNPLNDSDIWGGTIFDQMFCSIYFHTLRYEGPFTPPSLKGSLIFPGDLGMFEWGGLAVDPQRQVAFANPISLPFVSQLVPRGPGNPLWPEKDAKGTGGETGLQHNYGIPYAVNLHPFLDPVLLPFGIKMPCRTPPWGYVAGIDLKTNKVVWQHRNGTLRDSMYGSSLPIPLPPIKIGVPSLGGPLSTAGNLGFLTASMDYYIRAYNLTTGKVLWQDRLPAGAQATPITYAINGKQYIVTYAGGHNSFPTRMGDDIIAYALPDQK
The target in experiment [5] is glucose dehydrogenase whose coenzyme is the pyrroloquinolinequinone derived from Escherichia coli (Escherichia coli, UniProt P15877). Conditions: relative to glucose = 100%; cited from earlier work.
glucose dehydrogenase whose coenzyme is the pyrroloquinolinequinone derived from Escherichia coli, sequence (P15877 whole entry): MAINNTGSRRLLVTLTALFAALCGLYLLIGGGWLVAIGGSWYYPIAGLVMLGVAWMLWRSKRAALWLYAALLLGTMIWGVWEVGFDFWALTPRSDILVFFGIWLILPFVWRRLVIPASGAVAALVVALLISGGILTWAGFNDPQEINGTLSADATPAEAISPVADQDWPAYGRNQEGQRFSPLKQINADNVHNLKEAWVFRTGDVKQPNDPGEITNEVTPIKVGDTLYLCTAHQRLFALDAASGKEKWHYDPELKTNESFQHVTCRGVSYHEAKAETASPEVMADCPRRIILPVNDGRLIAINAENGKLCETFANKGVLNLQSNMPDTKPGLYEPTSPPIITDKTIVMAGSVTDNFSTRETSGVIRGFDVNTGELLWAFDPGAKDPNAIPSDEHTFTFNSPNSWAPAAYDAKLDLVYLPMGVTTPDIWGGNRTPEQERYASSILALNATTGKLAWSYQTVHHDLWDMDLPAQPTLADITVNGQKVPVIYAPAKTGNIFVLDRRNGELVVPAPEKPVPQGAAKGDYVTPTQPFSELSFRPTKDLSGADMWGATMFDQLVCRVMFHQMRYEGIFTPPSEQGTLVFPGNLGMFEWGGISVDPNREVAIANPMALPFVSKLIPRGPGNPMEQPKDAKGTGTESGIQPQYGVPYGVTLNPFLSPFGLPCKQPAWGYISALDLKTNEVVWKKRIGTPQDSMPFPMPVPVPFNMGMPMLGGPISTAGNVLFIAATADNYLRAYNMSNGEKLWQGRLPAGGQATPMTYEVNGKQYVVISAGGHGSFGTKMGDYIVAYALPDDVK
Experiment [6] has as its system glucose dehydrogenase whose coenzyme is the pyrroloquinolinequinone derived from Pseudomonas sp. Conditions: relative to glucose = 100%; cited from earlier work.
Setting [7] is: substrate 333 mM final, activity on D-glucose = 100%.

The structures appear in SMILES notation. Entries after “also recorded” stand apart in the source; their conditions may differ.

`c1cnc2c(c1)ccc1cccnc12` [1,10-Phenanthroline]: the “Inhibition (in words)” value in experiment [1] is on record as “not inhibited”. In experiment [2] (1 mM final concentration, methanol 10% (v/v)), the Inhibitory effect amounted to 62.0%. Also, the “Inhibit (%)” value in experiment [2] (5 mM final concentration, methanol 10% (v/v)) is given as 76%; in experiment [2] (10 mM final concentration, methanol 10% (v/v)) it was 85%; in experiment [2] (25 mM final concentration, methanol 10% (v/v)), 91%; in experiment [2] (50 mM final concentration, methanol 10% (v/v)), 95%. Moreover, the “Inhibition (%)” value in experiment [2] (additive 1 mM final concentration) stood at 62.0%.
As to `OC[C@H]1O[C@H](O[C@H]2[C@H](O)[C@@H](O)[C@H](O)O[C@@H]2CO)[C@H](O)[C@@H](O)[C@@H]1O` [Maltose], the “Relative activity (%)” value amounted to 1.4% in experiment [3] (setting [7]); 0.5% in experiment [3] (substrate final conc. 100 mM, D-glucose = 100%); 2.8% in experiment [3] (substrate final conc. 550 mM, D-glucose = 100%). The “Activity of the enzyme on the substrate (in words)” value (“Activity of the enzyme” below) in experiment [3] is listed as “lower activity; also recorded: weakly”. The Activity on maltose in experiment [4] is on record as 5%; in experiment [5] it was 3%; in experiment [6] it was 3.2%.
`OC[C@H]1O[C@@H](O[C@H]2[C@H](O)[C@@H](O)[C@H](O)O[C@@H]2CO)[C@H](O)[C@@H](O)[C@@H]1O` [D-Cellobiose]: the “Relative activity (%)” value in experiment [3] (substrate 193 mM final, activity on D-glucose = 100%) came to 2%. Also, the “Activity of the enzyme” value in experiment [3] is given as “lower activity; also recorded: weakly”.
On to `OC[C@H]1O[C@@H](O[C@H]2[C@H](O)[C@@H](O)C(O)O[C@@H]2CO)[C@H](O)[C@@H](O)[C@H]1O` (stereo partly shown) [Lactose], for which the “Relative activity (%)” value in experiment [3] (setting [7]) is on record as 0.1> %. In addition, in experiment [3], the “Activity of the enzyme” value is listed as “Almost no activity; also recorded: almost no effect”.
For the compound `O=C[C@H](O)[C@@H](O)[C@H](O)CO` [D-Xylose], in experiment [3] (setting [7]), the “Relative activity (%)” value is reported as 9.1%.
As for `OC[C@H]1OC[C@H](O)[C@@H](O)[C@@H]1O` [1,5-Anhydro-D-glucitol], the “Relative activity (%)” value in experiment [3] (setting [7]) turned out to be 2%. In experiment [3], the “Activity of the enzyme” value was “lower activity; also recorded: weakly”.
In the case of `O=C[C@H](O)[C@@H](O)[C@H](O)[C@H](O)COP(=O)(O)O` [D-Glucose-6-phosphate], the “Relative activity (%)” value in experiment [3] (setting [7]) is given as 1.1%. Besides, in experiment [3], the “Activity of the enzyme” value is reported as “lower activity; also recorded: weakly”.
In the same order, the values of `O=C(CO)[C@@H](O)[C@H](O)[C@@H](O)CO` [L-Sorbose] are 0.1> % and “Almost no activity; also recorded: almost no effect”.
In the same order, the values of `CCO` [Ethanol] are 0.1> % and “Almost no activity; also recorded: almost no effect”.
In the same order, the values of `O=C[C@H](O)[C@H](O)[C@H](O)CO` [D-Ribose] are 0.1> % and “Almost no activity; also recorded: almost no effect”.
On to `OC[C@H]1O[C@@](CO)(O[C@H]2O[C@H](CO)[C@@H](O)[C@H](O)[C@H]2O)[C@@H](O)[C@@H]1O` [Sucrose], for which the “Relative activity (%)” value in experiment [3] (setting [7]) is listed as 0.1> %. The “Activity of the enzyme” value in experiment [3] was “Almost no activity; also recorded: almost no effect”.

The values above are taken from patent US11225645B2 (priority 2002, dated 2022).
